# Results taken from US10655185B2, “Methods for diagnosis and prognosis of epithelial tumors” (H. Lee Moffitt Cancer Center and Research Institute, Inc., priority 2014, dated 2020).
# System: LNCaP-104S cells
# Experiment: Genome-wide miRNA expression profiling of androgen deprived / androgen blocked LNCaP cells
# Assay type: cell-based
# Excerpt: FIGS. 1A and 1B show expression of miR-17-92 and Frabin in Androgen Deprived LNCaP Cells. The androgen dependent cell line, LNCaP-104S, was subjected to androgen deprivation or androgen blockade for 3 weeks. Genome-wide miRNA expression profiling identified the miR-17-92 family to be down regulated by 1 week, and further reduced at 3 weeks of treatment. […] FIG. 1B is a Western blot of FGD4/Frabin expression in treated and untreated LNCaP-104S cells.
# Prolonged androgen blockade leads to outgrowth of androgen independent (AI) cells and the development of castration resistant prostate cancer (CRPC). The transition to androgen independence can occur through several adaptive mechanisms and usually results in the acquisition of a more aggressive phenotype, compared to their androgen sensitive progenitors. […] However, the role of miRNAs in progression of androgen sensitive prostate cancer to CRPC has not been clearly defined. To study this transition, androgen sensitive (AS) LNCaP prostate cancer cells were subjected to androgen blockade until a subset of cells (CDXR) survived. […] The miR-17-92 cluster is one of the groups of miRNAs that is down regulated as the cancer cells progresses towards androgen […] (ADT) resistance.
smiles,measurement,setting,value
CC(O)(CS(=O)(=O)c1ccc(F)cc1)C(=O)Nc1ccc(C#N)c(C(F)(F)F)c1 (stereo not shown) [CDX],fold change in expression (Δ Change) of hsa-miR-17,1 wk CDX,−3.37
same,fold change in expression (Δ Change) of hsa-miR-17*,1 wk CDX,−3.13
same,fold change in expression (Δ Change) of hsa-miR-18a,1 wk CDX,−4.36
same,fold change in expression (Δ Change) of hsa-miR-18b,1 wk CDX,−2.28
same,fold change in expression (Δ Change) of hsa-miR-20a,1 wk CDX,−3.31
same,fold change in expression (Δ Change) of hsa-miR-20a*,1 wk CDX,−1.25
same,fold change in expression (Δ Change) of hsa-miR-20b*,1 wk CDX,−0.56
same,fold change in expression (Δ Change) of hsa-miR-106a,1 wk CDX,−3.18
same,fold change in expression (Δ Change) of hsa-miR-17,3 wks CDX,−24.99
same,fold change in expression (Δ Change) of hsa-miR-17*,3 wks CDX,−3.94
same,fold change in expression (Δ Change) of hsa-miR-18a,3 wks CDX,−14.13
same,fold change in expression (Δ Change) of hsa-miR-18b,3 wks CDX,−21.36
same,fold change in expression (Δ Change) of hsa-miR-20a,3 wks CDX,−4.12
same,fold change in expression (Δ Change) of hsa-miR-20a*,3 wks CDX,−18.17
same,fold change in expression (Δ Change) of hsa-miR-20b*,3 wks CDX,−4.60
same,fold change in expression (Δ Change) of hsa-miR-106a,3 wks CDX,−9.40
